One assay has as its target T1, COQ7 (His6-GB1-Nd38COQ7) (Homo sapiens, UniProt Q99807).
T1 sequence (Q99807 39-217): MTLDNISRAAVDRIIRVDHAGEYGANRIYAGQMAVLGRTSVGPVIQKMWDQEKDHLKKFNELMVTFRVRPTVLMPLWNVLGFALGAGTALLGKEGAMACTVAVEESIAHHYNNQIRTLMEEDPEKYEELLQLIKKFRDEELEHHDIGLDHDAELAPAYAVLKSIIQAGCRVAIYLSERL
Description: NADH fluorescence loss. The format is biochemical. Conditions: 250 uM DMQ0, 5 uM protein, 20 mM HEPES pH 7.6, 200 mM NaCl, 30 °C.

The target in assay [1] is T2, His6-Nd79COQ9 (human COQ9 residues 79-318 with an N-terminal His tag) (human, UniProt O75208 79-318).
T2 sequence (looked up): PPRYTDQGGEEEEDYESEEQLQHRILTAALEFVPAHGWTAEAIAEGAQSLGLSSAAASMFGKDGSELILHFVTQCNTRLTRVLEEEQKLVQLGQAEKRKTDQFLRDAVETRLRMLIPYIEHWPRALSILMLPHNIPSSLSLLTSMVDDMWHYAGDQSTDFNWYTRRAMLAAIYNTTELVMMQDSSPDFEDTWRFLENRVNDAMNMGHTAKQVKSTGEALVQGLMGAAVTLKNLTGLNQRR
Put plainly: SEC + native gel or EMSA. On the technique in general: A gel shift assay detects complexes by their altered migration in electrophoresis.

For the molecule `NC(=O)C1=CN([C@@H]2O[C@H](COP(=O)(O)OP(=O)(O)OC[C@H]3O[C@@H](n4cnc5c(N)ncnc54)[C@H](O)[C@@H]3O)[C@@H](O)[C@H]2O)C=CC1` [NADH], at COQ7 (His6-GB1-Nd38COQ7), the NADH oxidation result was “wild type COQ7 slowly oxidized NADH and transferred electrons to a quinone acceptor”.

B1: GB1-Nd38COQ7 (human COQ7 residues 39-217 with N-terminal GB1 tag) (enzyme, UniProt Q99807 39-217, looked up)
chain: T1 sequence (Q99807 39-217)
In general, stoichiometry N refers to a count of units in the complex or per binding partner. In the case of B1, in assay [1], the “stoichiometry N” value turned out to be 1.

For the origin of these results see paper PMC10058641 (Molecular cell, 2022).
